Data reported in patent US20090263354A1, “Compositions and siRNAs for inhibiting C/EBPbeta” (Yeda Research and Development Co., Ltd., priority 2006, published 2009).

B1: FasL: Fas ligand, cytotoxic cytokine (protein, UniProt P48023 130-281, looked up)
Tumor necrosis factor ligand …: QIGHPSPPPEKKELRKVAHLTGKSNSRSMPLEWEDTYGIVLLSGVKYKKGGLVINETGLYFVYSKVYFRGQSCNNLPLSHKVYMRNSKYPQDLVMMEGKMMSYCTTGQMWARSSYLGAVFNLTSADHLYVNVSELSLVNFEESQTFFGLYKL

What was measured:
p53 = assay: Induction of cellular p53 by cell death inducers, immunoblotting; type: cell-based, human; details: WISH cells; 24 h (TNFα plus IFN-γ 48 h)
Procedure: The following experiment was carried out in order to confirm that the protective effect of C/EBPβ from cell death inducers is independent of the transfection process. Thus, B16 mouse melanoma cells, stably transfected with an inducible C/EBPβ expression vector (Clone F-10.9) were obtained from M. Revel and J. Chebath, Weizmann Institute of Science, Israel. Induction of C/EBPβ expression was triggered by addition of the antibiotic doxycycline (1 μg/ml, 24 h, Sigma) to the culture medium and was evaluated by both RT-PCR and immunoblotting. RT-PCR was performed as follows: F-10.9 cells (10^6) were harvested and total RNA was extracted by using the Rneasy® kit- from QIAGEN. cDNA was prepared by using random hexamers (Invitrogen) and M-MLV Reverse Transcriptase (Promega) according to the manufacturer's instructions. PCR was performed with the following primers: mouse C/EBPβ, 5′-[…] and 5′-[…]. Amplifications were done by initial denaturation (95° C., 4 min), 27 cycles of denaturation (95° C., 80 s), annealing (57° C., 60 s) and extension (72° C., 80 s), and final extension (72° C., 5 min). The resulting PCR products were resolved by agarose (1%) gel electrophoresis. […] For immunoblotting, cells were washed three times with ice-cold PBS and immediately frozen in liquid nitrogen. Cell pellets were re-suspended in four packed cell volumes of cytoplasmic buffer (10 mM Hepes, pH 7.9, 10 mM NaCl, 0.2 mM EDTA, 5% glycerol, 1.5 mM MgCl2, 1 mM DTT, 0.5 mM PMSF, 50 mM NaF, 0.1 mM Na3VO4, 2 mM EGTA, 10 mM Na2MoO4, 2 μg/ml each of leupeptin, pepstatin, and aprotinin). The suspension was freeze/thawn twice, incubated on ice for 20 min and then centrifuged (3,000×g, 10 min, 4° C.). The supernatant containing the proteins was collected and protein concentration was determined by a BCA Protein assay kit (Pierce), using BSA as a standard. Protein extracts (10 μg) were boiled in SDS/PAGE sample buffer containing 25 mM DTT and the supernatant was resolved by SDS/PAGE (10% acrylamide). The gel was then blotted onto a nitrocellulose membrane and proteins were detected with the indicated antibodies. Immune complexes were identified with a Super Signal detection kit (Pierce.).
It was recently reported that C/EBPβ binds to p53 and inhibits its activity, part of which could be induction of apoptosis. We carried out several experiments to find out if the protective effect of C/EBPβ over-expression against apoptosis induced by cell death inducers involves inhibition of p53. Initially, we determined which of the cell death inducers used for induction of apoptosis elevates the level of cellular p53. For this purpose, WISH cells were treated with; etoposide (50 μM for 24 h); MG262 (0.1 μM, for 24 h); TNFα (100 ng/ml) plus IFN-γ (1000 IU/ml) for 48 h; doxorubicin (1.8 μM, for 24 h); vincristine (0.1 μg/ml, for 24 h); FasL (60 ng/ml, 24 h); tunicamycin (1 μg/ml, for 24 h) or ALLN (26 μM, for 24 h), and extracts of these cells were subjected to immunoblotting with anti p53 (mab dd1+1801, 1:40 from M. Oren, WIS) as described in Example 6.

WISH cells = assay: Protection of WISH cells from cell death by pre-incubation with IGF-1 or IL-6; type: cell-based, human
Procedure: WISH cells were pre-incubated with IGF-1 (200 ng/ml) for the indicated times. Doxorubicin (2 μM, for 16 h) was then added. […] The same results were obtained when apoptosis was induced by MG262, TNF-α plus IFN-γ, and tunicamycin (data not shown).
WISH Cells (30,000 cells/well) were pre incubated with 6.25, 12.5, 25, 50, 100, 200, 300, 400, 500, or 1000 IU/ml of IL-6 for 6 h and then 26 μM ALLN was added for 48 h.

Molecule | induction of p53 (immunoblotting with anti p53) (p53) | further results
CC(C)C[C@H](NC(=O)[C@H](CC(C)C)NC(=O)[C@H](CC(C)C)NC(=O)OCc1ccccc1)B(O)O [MG262] | extensive induction of p53 | 
COc1cccc2c1C(=O)c1c(O)c3c(c(O)c1C2=O)C[C@@](O)(C(=O)CO)C[C@@H]3O[C@H]1C[C@H](N)[C@H](O)[C@H](C)O1 [doxorubicin] | extensive induction of p53 | 
COc1cc([C@@H]2c3cc4c(cc3[C@@H](O[C@@H]3O[C@@H]5CO[C@@H](C)O[C@H]5[C@H](O)[C@H]3O)[C@H]3COC(=O)[C@H]23)OCO4)cc(OC)c1O [etoposide] | did not induce p53 | 
CC[C@]1(O)C[C@H]2CN(CCc3c([nH]c4ccccc34)[C@@](C(=O)OC)(c3cc4c(cc3OC)N(C=O)[C@H]3[C@@](O)(C(=O)OC)[C@H](OC(C)=O)[C@]5(CC)C=CCN6CC[C@]43[C@@H]65)C2)C1 [vincristine] | did not induce p53 | 
IGF-1: growth factor IGF-1 added to the culture medium |  | protection of WISH cells from doxorubicin (WISH cells; IGF-1 200 ng/ml pre-incubation, doxorubicin 2 μM, 16 h): did not protect; protection of WISH cells from other apoptosis inducers (WISH cells; IGF-1, apoptosis induced by MG262, TNF-α plus IFN-γ, and tunicamycin, data not shown): same results
IL-6: cytokine IL-6 |  | protection from apoptosis induced by ALLN (WISH cells; IL-6 6.25-1000 IU/ml, 6 h before ALLN 26 μM, 48 h): did not protect
tunicamycin | did not induce p53 | 
B1 | did not induce p53 | 
